Read-outs that look alike come from different tables or passages of the source. Bridge positions count the residues as written; N and C are the ends. Ends that are not written are not given here. Peptide text beside a SMILES is read from it.

Drawing on article PMC10563079 (Molecules, 2023), this text covers IC50, Inhibition rate of sPHGDH enzyme activity (NADH fluorescence) and IC50 of inhibition of sPHGDH enzyme activity (NADH fluorescence); the pair blocked is the sPHGDH homo-dimer (m1+m1) for eleven molecules.

Experiment [1] concerns the target T1, full-length PHGDH (1-533) (Homo sapiens, UniProt O43175).
T1 construct: the full-length PHGDH (1-533); made in house
T1 sequence (O43175 1-533): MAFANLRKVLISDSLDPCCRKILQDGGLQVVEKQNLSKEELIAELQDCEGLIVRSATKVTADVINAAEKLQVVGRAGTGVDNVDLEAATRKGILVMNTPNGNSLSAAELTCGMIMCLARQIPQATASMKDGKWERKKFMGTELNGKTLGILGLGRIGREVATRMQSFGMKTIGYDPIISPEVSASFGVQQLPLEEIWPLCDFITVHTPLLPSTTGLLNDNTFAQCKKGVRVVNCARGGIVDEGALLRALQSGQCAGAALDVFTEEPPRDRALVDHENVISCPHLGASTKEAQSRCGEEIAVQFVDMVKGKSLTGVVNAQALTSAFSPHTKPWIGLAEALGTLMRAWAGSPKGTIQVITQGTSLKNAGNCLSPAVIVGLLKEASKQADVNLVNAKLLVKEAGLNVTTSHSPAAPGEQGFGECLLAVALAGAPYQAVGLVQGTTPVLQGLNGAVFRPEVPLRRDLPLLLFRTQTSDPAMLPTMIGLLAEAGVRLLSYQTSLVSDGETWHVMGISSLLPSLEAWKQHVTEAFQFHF
In words: full-length PHGDH enzyme activity assay (NADH fluorescence). In kind it is biochemical. On the procedure:
(§1) PHGDH activity in the presence of peptides was measured in 96-well plates (100 μL per well) at 25 °C, through monitoring the NADH fluorescence (excitation at 360 nm and emission at 460 nm) over time. PAST1 and its substrate glutamate were also included in order to prevent product inhibition. In the enzyme assays, protein expression and purification, including the truncated version of PHGDH (sPHGDH, 1-307), the full-length PHGDH (1-533), and PAST1, were carried out as described in our previous papers. To evaluate the effects of peptides on enzyme activity, the peptides were pre-incubated with enzyme samples (sPHGDH 453.3 nM or PHGDH 30.9 nM) in the assay buffer (HEPES 50 mM, pH 7.5, 10 mM MgCl2, and 1 mM EDTA) for 12 h. Then, 1.98 μM PAST1, 1 mM NAD^+, and 30 mM glutamate were added and pre-incubated for 10 min before initiating the enzyme reaction via the addition of the substrate (1 mM 3-PG). Fluorescence signals were recorded for 3 min with the kinetics-reading mode of the Biotek plate reader (Synergy). IC50 values were obtained through fitting the data using a three-parameter Hill model of the graph of log dose against the percentage inhibition from three repeated experiments. For those peptides containing two disulfide bonds, a second step of oxidation reaction was carried out to generate the second disulfide pair. […] The purified Acm-protected peptide was then treated with iodine (I2, 1 wt% in MeOH), dropwise under acidic conditions until the solution became brown.

The target of experiment [2] is T2, sPHGDH (1-307) (Homo sapiens, UniProt O43175).
T2 construct: the truncated version of PHGDH (sPHGDH, 1-307); made in house
T2 sequence (O43175 1-307): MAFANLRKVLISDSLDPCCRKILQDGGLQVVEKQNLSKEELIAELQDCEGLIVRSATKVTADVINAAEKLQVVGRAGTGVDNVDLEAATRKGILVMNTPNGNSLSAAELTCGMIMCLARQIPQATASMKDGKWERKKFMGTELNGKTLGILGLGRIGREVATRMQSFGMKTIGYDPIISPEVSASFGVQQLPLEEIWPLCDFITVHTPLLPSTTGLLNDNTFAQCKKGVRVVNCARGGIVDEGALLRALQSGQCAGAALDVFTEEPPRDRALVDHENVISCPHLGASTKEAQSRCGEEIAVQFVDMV
In words: sPHGDH enzyme activity assay (NADH fluorescence). In kind it is biochemical. On the procedure: as §1

The target in experiment [3] is truncated version of PHGDH (sPHGDH, 1-307) (human) (UniProt O43175).
Setting [4] is: IC50 value (μM), full-length PHGDH activity.
Setting [5] is: read-out: IC50 value (μM), full-length PHGDH activity.
The mark [6] stands for this setting: sPHGDH, 12 h pre-incubation, read-out: IC50 Value.

As for `CSCC[C@@H]1NC(=O)[C@@H]2CSSC[C@H](NC(=O)[C@H](Cc3c[nH]c4ccccc34)NC(=O)[C@H](CCCCN)NC(=O)CNC(=O)[C@H](CC(=O)O)NC(=O)[C@H](CC(C)C)NC1=O)C(=O)N[C@@H](CCC(=O)O)C(=O)N[C@@H](CCCCN)C(=O)N[C@@H](CCCCN)C(=O)N[C@H](C(=O)O)CSSC[C@H](NC(C)=O)C(=O)N[C@@H]([C@@H](C)O)C(=O)N1CCC[C@H]1C(=O)N[C@@H](CCC(N)=O)C(=O)N[C@@H](C)C(=O)N[C@@H]([C@@H](C)O)C(=O)N[C@@H](C)C(=O)N2` [Cyc2-6, C1TPQA TAC8ML DGKWC15 EKKC19] (Ac-CTPQATACMLDGKWCEKKC-OH; disulfide 1-19, 8-15), the IC50 in experiment [1] (setting [4]) is 47.1 ± 5.2 µM; in experiment [2] it was 15 ± 1 µM. In the case of `CSCC[C@@H]1NC(=O)[C@H](CO)NC(=O)[C@H](CC(C)C)NC(=O)[C@H]([C@@H](C)O)NC(=O)[C@H](C)NC(=O)[C@H](CC(=O)O)NC(=O)[C@@H]2CCCN2C(=O)[C@H]([C@@H](C)O)NC(=O)[C@@H](NC(C)=O)CSSC[C@@H](C(=O)O)NC(=O)[C@H](CCCCN)NC(=O)[C@H](CCCCN)NC(=O)[C@H](CCC(=O)O)NC(=O)[C@H](CCC(=O)O)NC(=O)[C@H](Cc2c[nH]c3ccccc23)NC(=O)[C@H](CCCCN)NC(=O)CNC(=O)[C@H](CC(=O)O)NC(=O)[C@H](CCCCN)NC1=O` [Cyc1-6, C1TPDA TLSMK DGKWE EKKC19] (Ac-CTPDATLSMKDGKWEEKKC-OH; disulfide 1-19), the IC50 was 24.6 ± 2.3 µM in experiment [1] (setting [5]) and 5.1 ± 0.4 µM in experiment [2] (setting [6]). In the case of `CSCC[C@@H]1NC(=O)[C@H]([C@@H](C)O)NC(=O)[C@H](CC(C)C)NC(=O)[C@H]([C@@H](C)O)NC(=O)[C@H](C)NC(=O)[C@H](CCC(N)=O)NC(=O)[C@@H]2CCCN2C(=O)[C@H]([C@@H](C)O)NC(=O)[C@@H](NC(C)=O)CSSC[C@@H](C(=O)O)NC(=O)[C@H](CCCCN)NC(=O)[C@H](CCCCN)NC(=O)[C@H](CCC(=O)O)NC(=O)[C@H](CCC(=O)O)NC(=O)[C@H](Cc2c[nH]c3ccccc23)NC(=O)[C@H](CCCCN)NC(=O)CNC(=O)[C@H](CC(=O)O)NC(=O)[C@H](CCCCN)NC1=O` [Cyc1-7, C1TPQA TLTMK DGKWE EKKC19] (Ac-CTPQATLTMKDGKWEEKKC-OH; disulfide 1-19), the values for the IC50 in experiment [1] (setting [5]) and in experiment [2] (setting [6]) were 23.5 ± 2 µM and 5.6 ± 1.2 µM, respectively. Consider `CSCC[C@@H]1NC(=O)[C@H](CO)NC(=O)[C@H](C)NC(=O)[C@H]([C@@H](C)O)NC(=O)[C@H](C)NC(=O)[C@H](CCC(N)=O)NC(=O)[C@@H]2CCCN2C(=O)[C@H]([C@@H](C)O)NC(=O)[C@@H](NC(C)=O)CSSC[C@@H](C(=O)O)NC(=O)[C@H](CCCCN)NC(=O)[C@H](CCCCN)NC(=O)[C@H](CCC(=O)O)NC(=O)[C@H](CCC(N)=O)NC(=O)[C@H](Cc2c[nH]c3ccccc23)NC(=O)[C@H](CO)NC(=O)CNC(=O)[C@H](CC(N)=O)NC(=O)[C@H](CCCCN)NC1=O` [Cyc1-9, C1TPQA TASMK NGSWQ EKKC19] (Ac-CTPQATASMKNGSWQEKKC-OH; disulfide 1-19), for which, in experiment [1] (setting [5]), the IC50 came out at 56.1 ± 3.4 µM.

For the molecule `CSCC[C@@H]1NC(=O)[C@@H]2CSSC[C@H](NC(=O)[C@H](Cc3c[nH]c4ccccc34)NC(=O)[C@H](CCCCN)NC(=O)CNC(=O)[C@H](CC(=O)O)NC(=O)[C@H](CC(C)C)NC1=O)C(=O)N[C@@H](CCCNC(=N)N)C(=O)N[C@@H](CCCCN)C(=O)N[C@@H](CCCCN)C(=O)N[C@H](C(=O)O)CSSC[C@H](NC(C)=O)C(=O)N[C@@H]([C@@H](C)O)C(=O)N1CCC[C@H]1C(=O)N[C@@H](CCC(N)=O)C(=O)N[C@@H](C)C(=O)N[C@@H]([C@@H](C)O)C(=O)N[C@@H](C)C(=O)N2` [Cyc2-2, C1TPQA TAC8ML DGKWC15 RKKC19] (Ac-CTPQATACMLDGKWCRKKC-OH; disulfide 1-19, 8-15), the IC50 in experiment [1] (setting [4]) was determined as 32.9 ± 4 µM; in experiment [2], 9.4 ± 1.5 µM. For `CSCC[C@@H]1NC(=O)[C@H](CO)NC(=O)[C@H](CC(C)C)NC(=O)[C@H]([C@@H](C)O)NC(=O)[C@H](C)NC(=O)[C@H](CCC(N)=O)NC(=O)[C@@H]2CCCN2C(=O)[C@H]([C@@H](C)O)NC(=O)[C@@H](NC(C)=O)CSSC[C@@H](C(=O)O)NC(=O)[C@H](CCCCN)NC(=O)[C@H](CCCCN)NC(=O)[C@H](CCC(=O)O)NC(=O)[C@H](CCC(=O)O)NC(=O)[C@H](Cc2c[nH]c3ccccc23)NC(=O)[C@H](CCCCN)NC(=O)CNC(=O)[C@H](CC(=O)O)NC(=O)[C@H](CCCCN)NC1=O` [Cyc1-2, C1TPQA TLSMK DGKWE EKKC19] (Ac-CTPQATLSMKDGKWEEKKC-OH; disulfide 1-19), the IC50 in experiment [1] (setting [5]) was determined as 20.1 ± 2.6 µM. For `CSCC[C@@H]1NC(=O)[C@H](CO)NC(=O)[C@H](C)NC(=O)[C@H]([C@@H](C)O)NC(=O)[C@H](C)NC(=O)[C@H](CCC(N)=O)NC(=O)[C@@H]2CCCN2C(=O)[C@H]([C@@H](C)O)NC(=O)[C@@H](NC(C)=O)CSSC[C@@H](C(=O)O)NC(=O)[C@H](CCCCN)NC(=O)[C@H](CCCCN)NC(=O)[C@H](Cc2c[nH]c3ccccc23)NC(=O)[C@H](CCC(=O)O)NC(=O)[C@H](Cc2c[nH]c3ccccc23)NC(=O)[C@H](CCCCN)NC(=O)CNC(=O)[C@H](CC(=O)O)NC(=O)[C@H](CC(C)C)NC1=O` [Cyc1-5, C1TPQA TASML DGKWE WKKC19] (Ac-CTPQATASMLDGKWEWKKC-OH; disulfide 1-19), the IC50 turned out to be 37.1 ± 1.7 µM in experiment [1] (setting [5]) and 13.4 ± 2 µM in experiment [2] (setting [6]).

B1: cyclic peptide cyc1-3 (peptide)
peptide: CTPQATKSMLDGKWEEKKC
modifications: disulfide 1-19; not fully specified (N-terminus); printed as C_1_TPQA TKSML DGKWE EKKC_19_
For B1, the Inhibition rate of sPHGDH enzyme activity (NADH fluorescence) at 50 µM peptide; the pair blocked is the sPHGDH homo-dimer (m1+m1) in experiment [3] came to 19%.

B2: double constrained cyclic peptide cyc2-6 (peptide)
peptide: CTPQATACMLDGKWCEKKC
modifications: disulfide 1-19, 8-15; not fully specified (N-terminus); printed as C_1_TPQA TAC_8_ML DGKWC_15_ EKKC_19_
As for B2, the IC50 of inhibition of sPHGDH enzyme activity (NADH fluorescence); the pair blocked is the sPHGDH homo-dimer (m1+m1) in experiment [3] turned out to be 15 µM.

B3: double constrained cyclic peptide cyc2-5 (peptide)
peptide: CTPQATACMKDGKWCWKKC
modifications: disulfide 1-19, 8-15; not fully specified (N-terminus); printed as C_1_TPQA TAC_8_MK DGKWC_15_ WKKC_19_
In the case of B3, the Inhibition rate of sPHGDH enzyme activity (NADH fluorescence) at 50 µM peptide; the pair blocked is the sPHGDH homo-dimer (m1+m1) in experiment [3] turned out to be 27%.

B4: cyclic peptide cyc1-7 (peptide)
peptide: CTPQATLTMKDGKWEEKKC
modifications: disulfide 1-19; not fully specified (N-terminus); printed as C_1_TPQA TLTMK DGKWE EKKC_19_
In experiment [3], B4 displayed an IC50 of inhibition of sPHGDH enzyme activity (NADH fluorescence); the pair blocked is the sPHGDH homo-dimer (m1+m1) of 5.6 µM.

The IC50 is the concentration needed to halve the response being measured.
